Experimental data taken from patent US10815276B2, “Cell penetrating peptides and methods of making and using thereof” (Entrada Therapeutics, Inc., priority 2014, dated 2020).
Where “and” joins values, the source holds several entries; their conditions need not be identical. Equal entries are not always repeated. Where two headings read alike, the source gives them in different places. Starred links: 1 amine or outer side, 2 acyl side, 3 side chain; linkers in the order of their positions; H or OH if unused. Non-standard residues stand in square brackets, D forms with d. Residues, ends and D or L forms follow the SMILES beside them. No end group written: not given here. *: point of attachment. RhodamineB = CCN(CC)c1ccc2c(-c3ccccc3C(=O)*)c3ccc(=[N+](CC)CC)cc-3oc2c1; Trimesoyl = O=C(c1cc(C(=O)[*:2])cc(C(=O)[*:3])c1)[*:1]; 2Nal = N[C@@H](Cc1ccc2ccccc2c1)C(=O)O; Dap = NC[C@H](N)C(=O)O

Experiments:
[1] = Aqueous solubility; type: physicochemical
[2] = system: HeLa cells; assay: Cytoplasmic delivery of pCAP-containing peptides, flow cytometry; conditions: pCAP-containing peptide as cargo
[3] = system: mammalian cells; conditions: Qian et al. 2013; cited from earlier work
[4] = system: HEK293, MCF-7, A549, H1650, and H1299; assay: MTT cytotoxicity assay; type: cell-based, human
Experimental: MTT assays were performed to evaluate cyclic peptide's cytotoxicity against several mammalian cell lines (Mosmann, T. J. Immunol. Methods, 1983, 65, 55-63). One hundred μL of MCF-7, HEK293, H1299, H1650, A549 (1×10^5 cells/mL) cells were placed in each well of a 96-well culture plate and allowed to grow overnight. Varying concentrations of the peptide (5 or 50 μM) were added to the each well and the cells were incubated at 37° C. with 5% CO2 for 24 to 72 h. Ten μL of MTT stock solution was added into each well. Addition of 10 μL of the solution to the growth medium (no cell) was used as a negative control. The plate was incubated at 37° C. for 4 h. Then 100 μL of SDS-HCl solubilizing buffer was added into each well, and the resulting solution was mixed thoroughly. The plate was incubated at 37° C. for another 4 h. The absorbance of the formazan product was measured at 570 nm using a Molecular Devices Spectramax M5 plate reader. Each experiment was performed in triplicates and the cells without any peptide added were treated as control.

[5] = system: cell type (e.g., HeLa cells); assay: Cellular uptake efficiency of cyclic CPPs; type: cell-based; conditions: relative to cFΦR4 (290-1F, 100%)
Experimental: In particular embodiments, uptake efficiency is determined by comparing (i) the amount of a cyclic cell-penetrating peptide of the invention internalized by a cell type (e.g., HeLa cells) to (ii) the amount of c(FΦRRRRQ) (290-1F) internalized by the same cell type. To measure cellular uptake efficiency, the cell type may be incubated in the presence of a cell-penetrating peptide of the invention for a specified period of time (e.g., 30 minutes, 1 hour, 2 hours, etc.) after which the amount of the cell-penetrating peptide internalized by the cell is quantified. Separately, the same concentration of c(FΦRRRRQ) (290-1F) is incubated in the presence of the cell type over the same period of time, and the amount of the second peptide internalized by the cell is quantified. Quantification can be achieved by fluorescently labeling the cell-penetrating peptide (e.g., with a FTIC dye) and measuring the fluorescence intensity using techniques well-known in the art.
(§1) Also discussed herein are the CPP sequences in Table 16. All uptake/delivery efficiencies are in Table 17 are relative to that of cFΦR4 (290-1F, 100%). SUV1 are small unilamellar vesicles that mimic the neutral outer membrane of mammalian cells [45% phosphatidylcholine (PC), 20% phosphatidylethanolamine (PE), 20% sphingomyelin (SM), and 15% cholesterol (CHO)]. SUV2 are small unilamellar vesicles that mimic the negatively charged endosomal membrane of mammalian cells [50% PC, 20% PE, 10% phosphatidylinositol (PI), and 20% bis(monoacylglycerol)phosphate].

[6] = system: SUV1 (vesicles that mimic the neutral outer membrane of mammalian cells); assay: Fluorescence polarization membrane binding, SUV1
Source text: as §1
(§2) Measurements were carried out fluorescence polarization using FITC-labeled cyclic peptides against increasing concentrations of vesicles. Experiments were performed at pH 7.4 and 5.5 (pH inside late endosomes).

[7] = system: HeLa cells; assay: Effect on endocytosis of dextran^Alexa488, flow cytometry; type: cell-based, human; conditions: 1 μM cFΦR4, 100 μM dextran^Alexa488, 30 min
Experimental: HeLa cells were treated with clear DMEM containing no supplement, 1 μM cFΦR4 only, 100 μM dextran^Alexa488 only, or both 1 μM cFΦR4 and 100 μM dextran^Alexa488. MFI, mean fluorescence intensity.
Following adherence, cells were treated with clear DMEM containing no supplement, 1 μM cFΦR4 peptide, 100 μM dextran^Alexa488 (Life Technologies, D-22910), or both 1 μM cyclic peptide and 100 μM dextran^Alexa488 for 30 min under standard cell culture conditions. The cells were washed with DPBS twice, removed from the plate with 0.25% trypsin, diluted into clear DMEM containing 10% FBS, pelleted at 300 g for 5 min, washed once with DPBS and resuspended in 200 μL of DPBS. Whole-cell dextran uptake was analyzed on a BD Accuri C6 flow cytometer using the manufacturer FL1 laser and filter set.

[8] = system: SUV2 (vesicles that mimic the negatively charged endosomal membrane of mammalian cells); assay: Fluorescence polarization membrane binding, SUV2
Source text: as §1, §2

[9] = system: HeLa cells; assay: FACS uptake of FITC-labeled peptides; type: cell-based, human; conditions: 5 μM, 2 h
[10] = system: α-chymotrypsin and trypsin; assay: Peptide proteolysis stability assay; type: in vitro ADME; conditions: 37° C.
Experimental: The stability tests were carried out by slightly modifying a previously reported procedure (Frackenpohl, J et al. Chembiochem 2001, 2, 445). 24 μL of 1.5 mM peptide solution was incubated at 37° C. with 30 μL 50 μM of α-chymotrypsin and 30 μL 50 μM of trypsin in 200 μL of working buffer (50 mM Tris-HCl, pH 8.0, NaCl (100 mM), CaCl2 (10 mM)). At various time points (0-12 h), 40 μL aliquots were withdrawn and mixed with 40 μL of 15% trichloroacetic acid and incubated at 4° C. overnight. The final mixture was centrifuged at 15,000 rpm for 10 min in a microcentrifuge, and the supernatant was analyzed by reversed-phase HPLC equipped with a C18 column (Waters). The amount of remaining peptide (%) was determined by integrating the area underneath the peptide peak (monitored at 214 nm) and compared with that of control reaction (no proteases).

[11] = system: HeLa cells; assay: Live-cell confocal microscopy of FITC-labeled peptides; type: cell-based, human; conditions: 5 μM
Experimental: To detect peptide internalization, 1 mL of HeLa cell suspension (5×10^4 cells) was seeded in a 35 mm glass-bottomed microwell dish (MatTek) and cultured overnight. Cells were gently washed with DPBS twice and treated with FITC labeled peptides (5 μM) and dextran^Rho (0.5 mg mL^−1) in phenol-red free DMEM containing 1% serum at 37° C. for 1 h in the presence of 5% CO2. After removal of the medium, the cells were gently washed with DPBS twice and incubated with 5 μM DRAQS in DPBS for 10 min. The cells were again washed with DPBS twice and imaged on a Visitech Infinity 3 Hawk 2D-array live cell imaging confocal microscope. Images were captured under the same parameters and adjusted under the same setting using MetaMorph (Molecular Devices).

[12] = system: NIH 3T3 cells; assay: Anti-pY western blot of global pY protein levels; type: cell-based; conditions: 0-500 nM, 2 h
Experimental: NIH 3T3 cells were cultured in full growth media to reach 80% confluence. The cells were starved in serum free media for 3 h and treated with different concentrations of cFΦR4-PTP1B or untagged PTP1B for 2 h, followed by 30 min incubation in media supplemented with 1 mM sodium pervanadate. The solutions were removed and the cells were washed with cold DPBS twice. The cells were detached and lysed in 50 mM Tris-HCl, pH 7.4, 150 mM NaCl, 1% NP-40, 10 mM sodium pyrophosphate, 5 mM iodoacetic acid, 10 mM NaF, 1 mM EDTA, 2 mM sodium pervanadate, 0.1 mg/mL phenylmethanesulfonyl fluoride, 1 mM benzamidine, and 0.1 mg/mL trypsin inhibitor. After 30 min incubation on ice, the cell lysate was centrifuged at 15,000 rpm for 25 min in a microcentrifuge. The total cellular proteins were separated by SDS-PAGE and transferred electrophoretically to PVDF membrane, which was immunoblotted using anti-pY antibody 4G10.
NIH 3T3 cells were incubated for 2 h in the presence of untagged PTP1B or cFΦR4-PTP1B and their global pY protein levels were analyzed by anti-pY western blotting (FIG. 12A). […] Several proteins in the 150-200 kD range were completely dephosphorylated upon the addition of 62 nM cFΦR4-PTP1B, whereas proteins of ˜80 kD remained phosphorylated at 500 nM cFΦR4-PTP1B.

[13] = pKa of CAP fluorophore; type: physicochemical; conditions: deprotonated state fluorescent
[14] = system: HEK293 cells; assay: FACS uptake of rhodamine-labeled bicyclic vs monocyclic peptide; type: cell-based, human
Source text: In recent years, there has been much interest in cyclic peptides as therapeutic agents and biomedical research tools (Driggers, E M et al. Nat. Rev. Drug Discov., 2008, 7, 608-624; Marsault, E and Peterson, M L. J. Med. Chem., 2011, 54, 1961-2004). For example, cyclic peptides are effective for inhibition of protein-protein interactions (Lian, W et al. J. Am. Chem. Soc., 2013, 135, 11990-11995; Liu, T et al. ACS Comb. Sci., 2011, 13, 537-546; Dewan, V et al. ACS Chem. Biol., 2012, 7, 761-769; Wu, X et al. Med. Chem. Commun., 2013, 4, 378-382), which are challenging targets for conventional small molecules. A major obstacle in developing cyclic peptide therapeutics is that they are generally impermeable to the cell membrane (Kwon, Y U and Kodadek, T. Chem. Biol., 2007, 14, 671-677; Rezai, T et al. J. Am. Chem. Soc., 2006, 128, 2510-2511; Chatterjee, J et al. Acc. Chem. Res., 2008, 41, 1331-1342). […] The bicyclic peptides were readily synthesized by forming three amide bonds between a trimesoyl scaffold and three amino groups on the corresponding linear peptide (i.e., the N-terminal amine, the side chain of a C-terminal diaminopropionic acid (Dap), and the side chain of a lysine (or ornithine, Dap) imbedded in between the CPP and target-binding motifs) (Lian, W et al. J. Am. Chem. Soc., 2013, 135, 11990-11995). […]

cyclo(FΦRRRRQ)-FFFF-K(Rho) (cyclo(F[2Nal]RRRRQFFFFK(RhodamineB)); not fully specified (C-terminus, bridges); printed as cyclo(FΦRRRRQ)-FFFF-K(Rho)) [cFΦR4-F4]
Aqueous solubility [1]: poor

N=C(N)NCCC[C@@H]1NC(=O)[C@H](CCCNC(=N)N)NC(=O)[C@H](CCCNC(=N)N)NC(=O)[C@H](Cc2ccc3ccccc3c2)NC(=O)[C@H](Cc2ccccc2)NC(=O)[C@H](CCC(N)=O)NC(=O)[C@H](CCCNC(=N)N)NC1=O [cFΦR4, cyclo(FΦRRRRQ)] (cyclo(F[2Nal]RRRRQ))
Delivery efficiency higher than R9, Antp, and Tat [2]: 4-12 fold and 3.7-12 fold | Efficiency of entering cytoplasm and nucleus higher than nonaarginine (R9) [3]: 2-5 fold | Growth inhibition after 72 h ([4]; 50 μM): up to 20% | Growth inhibition after 24 or 48 h ([4]; up to 50 μM): no significant growth inhibition | Uptake Efficiency (%) [5]: 100% | Kd ([6]; pH 5.5, read-out: Membrane Binding KD (mM) SUV1 pH 5.5): 1.1 mM | Kd ([6]; pH 7.4, read-out: Membrane Binding KD (mM) SUV1 pH 7.4): 4 mM | Increase in internalization of dextran^Alexa488 [7]: 15% | Kd ([8]; pH 5.5, read-out: Membrane Binding KD (mM) SUV2 pH 5.5): 0.63 mM | Kd ([8]; pH 7.4, read-out: Membrane Binding KD (mM) SUV2 pH 7.4): 0.66 mM

CH3CH2CH2CO-FΦRRRRUK(FITC)-NH2 [Peptide 2 (Example 2)]
Mean fluorescence intensity (MFI), total intracellular FITC fluorescence [9]: 5530 arbitrary units (AU) | Half-life with protease cocktail [10]: ~20 min | Intracellular FITC fluorescence (confocal) [11]: much weaker intracellular fluorescence

cFΦR4-PTP1B: cFΦR4 conjugated to ybbR-tagged PTP1B catalytic domain via a thioether bond
Global pY protein levels [12]: concentration-dependent decrease in pY levels

NC(Cc1cc(=O)oc2cc(O)ccc12)C(=O)O (centres unmarked) [CAP, coumaryl aminopropionic acid]
pKa [13]: 7.8

[Tm(AAAAA)K(RRRRΦF)J]-K(Rho) (Trimesoyl-AAAAAKRRRR[2Nal]F[Dap]K(RhodamineB); linker (positions not given here) via Trimesoyl; not fully specified (C-terminus, bridges); printed as [Tm(AAAAA)K(RRRRΦF)J]-K(Rho)) [bicyclo(FΦR4-A5)^Rho]
Uptake more efficient than corresponding monocyclic peptide (compound 17) [14]: ~3 fold
